According to ChEMBL document CHEMBL1201862, “PubChem BioAssay data set” (2004):
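These data come from cells grown in 96-well plates and exposed to compound for 48 hours at five concentrations. Abbreviation: GI50, concentration required for 50% inhibition of growth.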 Activity calls are given as the source filed them. Rule as the data show it: active = GI50 up to about 1.1 µM and inactive = higher.

What was measured:
Assay in all cases: NCI-60 cell line screen, 48 h
[1] = system: EKVX
[2] = system: M19-MEL
[3] = system: M14
[4] = system: A549
[5] = system: HCC 2998
[6] = system: HL-60
[7] = system: NCI-H522
[8] = system: U-251
[9] = system: SK-MEL-5
[10] = system: RXF 393
[11] = system: SF-268
[12] = system: SNB-19
[13] = system: Malme-3M
[14] = system: OVCAR-8
[15] = system: DLD-1
[16] = system: COLO 205
[17] = system: Hs-578T
[18] = system: SN12C
[19] = system: SF-295
[20] = system: KM-20L2
[21] = system: HOP-92
[22] = system: SW-620
[23] = system: SK-MEL-28
[24] = system: OVCAR-3
[25] = system: SF-539
[26] = system: SK-MEL-2
[27] = system: T47D
[28] = system: ACHN
[29] = system: HT-29
[30] = system: MDA-MB-435
[31] = system: SNB-78
[32] = system: UACC-62
[33] = system: NCI/ADR-RES
[34] = system: DU-145
[35] = system: HOP-18
[36] = system: CCRF-CEM
[37] = system: HOP-62
[38] = system: CAKI-1
[39] = system: OVCAR-5
[40] = system: UO-31
[41] = system: HCT-15
[42] = system: MCF7
[43] = system: TK-10
[44] = system: MDA-MB-231
[45] = system: NCI-H226
[46] = system: 786-0
[47] = system: MDA-N
[48] = system: RPMI-8226
[49] = system: KM12
[50] = system: SK-OV-3
[51] = system: XF498
[52] = system: HCT-116
[53] = system: A498
[54] = system: IGROV-1
[55] = system: DMS-273
[56] = system: LXFL 529
[57] = system: UACC-257
[58] = system: NCI-H23
[59] = system: SR
[60] = system: BT-549
[61] = system: RXF 631
[62] = system: SNB-75
[63] = system: MOLT-4
[64] = system: NCI-H460
[65] = system: PC-3
[66] = system: LOX IMVI
[67] = system: K562
[68] = system: OVCAR-4

SMILES: CCCCCCCCCCC(O)C1CCC(C(O)CCC(O)C2CCC(CCCCCCC[C@H](O)CC3=C[C@@H](C)OC3=O)O2)O1 (stereo not given in full)
- GI50 [1]: 34.8 µM (inactive)
- GI50 [2]: > 76.4 µM (inactive)
- GI50 [3]: > 100 µM (inactive)
- GI50 [4]: 15.1 µM (inactive)
- GI50 [5]: 97.5 µM (inactive)
- GI50 [6]: 0.01 µM (active)
- GI50 [7]: 1.34 µM (inactive)
- GI50 [8]: 10.2 µM (inactive)
- GI50 [9]: 0.01 µM (active)
- GI50 [10]: 5.81 µM (inactive)
- GI50 [11]: 9.23 µM (inactive)
- GI50 [12]: 3.66 µM (inactive)
- GI50 [13]: 29.6 µM (inactive)
- GI50 [14]: 10.2 µM (inactive)
- GI50 [15]: 54.8 µM (inactive)
- GI50 [16]: > 100 µM (inactive)
- GI50 [17]: > 10 µM (inactive)
- GI50 [18]: > 48.9 µM (inactive)
- GI50 [19]: 0.01 µM (active)
- GI50 [20]: > 100 µM (inactive)
- GI50 [21]: 11.6 µM (inactive)
- GI50 [22]: > 51.4 µM (inactive)
- GI50 [23]: > 51.9 µM (inactive)
- GI50 [24]: 18.3 µM (inactive)
- GI50 [25]: 26.8 µM (inactive)
- GI50 [26]: > 100 µM (inactive)
- GI50 [27]: > 10 µM (inactive)
- GI50 [28]: 1.2 µM (inactive)
- GI50 [29]: > 100 µM (inactive)
- GI50 [30]: 6.28 µM (inactive)
- GI50 [31]: 14.9 µM (inactive)
- GI50 [32]: 4.02 µM (inactive)
- GI50 [33]: 957 nM (active)
- GI50 [34]: > 10 µM (inactive)
- GI50 [35]: > 100 µM (inactive)
- GI50 [36]: 3.48 µM (inactive)
- GI50 [37]: > 40.6 µM (inactive)
- GI50 [38]: > 70.8 µM (inactive)
- GI50 [39]: > 100 µM (inactive)
- GI50 [40]: 2.25 µM (inactive)
- GI50 [41]: > 53.1 µM
- GI50 [42]: 2 µM (inactive)
- GI50 [43]: 30.3 µM (inactive)
- GI50 [44]: > 10 µM (inactive)
- GI50 [45]: 2.64 µM (inactive)
- GI50 [46]: 17.3 µM (inactive)
- GI50 [47]: > 10 µM (inactive)
- GI50 [48]: 0.855 µM (active)
- GI50 [49]: 6.1 µM (inactive)
- GI50 [50]: 30.3 µM (inactive)
- GI50 [51]: 28.2 µM (inactive)
- GI50 [52]: < 33 nM (active)
- GI50 [53]: 22.2 µM (inactive)
- GI50 [54]: 31.5 µM (inactive)
- GI50 [55]: 41.6 µM (inactive)
- GI50 [56]: 14.6 µM (inactive)
- GI50 [57]: < 0.0169 µM (active)
- GI50 [58]: 0.01 µM (active)
- GI50 [59]: 10 nM (active)
- GI50 [60]: 1 nM (active)
- GI50 [61]: > 46.2 µM (inactive)
- GI50 [62]: 6.9 µM (inactive)
- GI50 [63]: 2.02 µM (inactive)
- GI50 [64]: > 22.9 µM (inactive)
- GI50 [65]: > 10 µM (inactive)
- GI50 [66]: 14.6 µM (inactive)

SMILES: COc1ccc(S(=O)(=O)N(C)CC(=O)O)cc1
- GI50 [1]: > 100 µM (inactive)
- GI50 [2]: > 100 µM (inactive)
- GI50 [3]: > 100 µM (inactive)
- GI50 [4]: > 100 µM (inactive)
- GI50 [5]: > 100 µM (inactive)
- GI50 [6]: > 100 µM (inactive)
- GI50 [7]: > 100 µM (inactive)
- GI50 [8]: > 100 µM (inactive)
- GI50 [9]: > 100 µM (inactive)
- GI50 [10]: > 100 µM (inactive)
- GI50 [11]: > 100 µM (inactive)
- GI50 [12]: > 100 µM (inactive)
- GI50 [13]: > 100 µM (inactive)
- GI50 [14]: > 100 µM (inactive)
- GI50 [67]: > 100 µM (inactive)
- GI50 [15]: > 100 µM (inactive)
- GI50 [16]: > 100 µM (inactive)
- GI50 [18]: > 100 µM (inactive)
- GI50 [19]: > 100 µM (inactive)
- GI50 [20]: > 100 µM (inactive)
- GI50 [21]: > 100 µM (inactive)
- GI50 [22]: > 100 µM (inactive)
- GI50 [23]: > 100 µM (inactive)
- GI50 [24]: > 100 µM (inactive)
- GI50 [25]: > 100 µM (inactive)
- GI50 [26]: > 100 µM (inactive)
- GI50 [28]: > 100 µM (inactive)
- GI50 [29]: > 100 µM (inactive)
- GI50 [32]: > 100 µM (inactive)
- GI50 [35]: > 100 µM (inactive)
- GI50 [36]: > 100 µM (inactive)
- GI50 [38]: > 100 µM (inactive)
- GI50 [39]: > 100 µM (inactive)
- GI50 [40]: > 100 µM (inactive)
- GI50 [41]: > 100 µM
- GI50 [43]: > 100 µM (inactive)
- GI50 [45]: > 100 µM (inactive)
- GI50 [46]: > 100 µM (inactive)
- GI50 [48]: > 100 µM (inactive)
- GI50 [49]: > 100 µM (inactive)
- GI50 [50]: > 100 µM (inactive)
- GI50 [51]: > 100 µM (inactive)
- GI50 [53]: > 100 µM (inactive)
- GI50 [54]: > 100 µM (inactive)
- GI50 [55]: > 100 µM (inactive)
- GI50 [56]: > 100 µM (inactive)
- GI50 [57]: > 100 µM (inactive)
- GI50 [58]: > 100 µM (inactive)
- GI50 [61]: > 100 µM (inactive)
- GI50 [62]: > 100 µM (inactive)
- GI50 [63]: > 100 µM (inactive)
- GI50 [68]: > 100 µM (inactive)
- GI50 [64]: > 100 µM (inactive)
- GI50 [66]: > 100 µM (inactive)
